Tests used:
AMARE = test: greenhouse post-emergence herbicidal test; type: in vivo, redroot pigweed
Description: (§1) The seeds of the test plants were sown separately for each species. For the post-emergence treatment, the test plants were first grown to a plant height of from 3 to 15 cm, depending on the plant habit, and only then treated with the active compounds which had been suspended or emulsified in water. To this end, the test plants were either sown directly and grown in the same containers, or they were first grown separately as seedlings and transplanted into the test containers a few days prior to treatment. The rate of application for the post-emergence treatment was 31.3, 62.5, 125 and/or 250 g of a.s. (active substance) /ha. Depending on the species, the plants were kept at from 10 to 25° C., or 20-35° C., respectively. The test period extended over 2 to 4 weeks. During this time, the plants were tended, and their response to the individual treatments was evaluated. Evaluation was carried out using a scale of from 0 to 100. 100 means no emergence of the plants, or complete destruction of at least the aerial parts, and 0 means no damage, or normal course of growth. A damage of at least 95% corresponds to very good herbicidal action. The plants used in the greenhouse experiments were of the following species: [table]

BRAPL = test: greenhouse post-emergence herbicidal test; type: in vivo, marmelade grass
Description: as §1

BIDPI = test: greenhouse post-emergence herbicidal test; type: in vivo, hairy beggarticks; details: 125 or 250 g/ha (a.s.)
Description: as §1

POLPE = test: greenhouse post-emergence herbicidal test; type: in vivo, ladysthumb
Description: as §1

STEME = test: greenhouse post-emergence herbicidal test; type: in vivo, chickweed; details: 31.3 or 62.5 g/ha (a.s.)
Description: as §1

THLAR = test: greenhouse post-emergence herbicidal test; type: in vivo, pennycress; details: 31.3 or 62.5 g/ha (a.s.)
Description: as §1

PAPRH = test: greenhouse post-emergence herbicidal test; type: in vivo, cornpoppy; details: 31.3 or 62.5 g/ha (a.s.)
Description: as §1

CHEAL = test: greenhouse post-emergence herbicidal test; type: in vivo, lambsquarters (goosefoot); details: 125 or 250 g/ha (a.s.)
Description: as §1

ECHCG = test: greenhouse post-emergence herbicidal test; type: in vivo, barnyardgrass; details: 125 or 250 g/ha (a.s.)
Description: as §1

SETFA = test: greenhouse post-emergence herbicidal test; type: in vivo, giant foxtail; details: 125 or 250 g/ha (a.s.)
Description: as §1

PHBPU = test: greenhouse post-emergence herbicidal test; type: in vivo, morningglory, common; details: 125 or 250 g/ha (a.s.)
Description: as §1

SMILES: C=CCn1c(=O)sc2ccc(C(=O)c3cnn(C)c3O)c(C)c21 [Example 4]
- melting point: 155 to 158 °C

SMILES: Cc1c(C(=O)c2cnn(C)c2O)ccc2oc(=O)n(C)c12 [Example 6]
- melting point: 200 to 203 °C

SMILES: C=CCn1c(=O)oc2ccc(C(=O)c3cnn(C)c3O)c(C)c21 [Example 7]
- melting point: 127 to 129 °C

SMILES: CCn1c(=O)oc2ccc(C(=O)c3cnn(C)c3O)c(C)c21 [Example 8]
- melting point: 156 to 157 °C

SMILES: CCCn1c(=O)sc2ccc(C(=O)c3cnn(C)c3O)c(C)c21 [Example 15]
- melting point: 135 to 137 °C

SMILES: Cc1c(C(=O)c2cnn(C)c2O)ccc2sc(=O)n(Cc3ccccc3)c12 [Example 16]
- melting point: 65 to 71 °C

SMILES: Cc1c(C(=O)c2cnn(C(C)C)c2O)ccc2sc(=O)n(Cc3ccccc3)c12 [Example 17]
- melting point: 142 to 144 °C

SMILES: Cc1nn(C)c(O)c1C(=O)c1ccc2sc(=O)n(Cc3ccccc3)c2c1C [Example 18]
- melting point: 153 to 156 °C

SMILES: CC#CCn1c(=O)sc2ccc(C(=O)c3cnn(C)c3O)c(C)c21 [Example 20]
- melting point: 140 to 147 °C

SMILES: CC#CCn1c(=O)sc2ccc(C(=O)c3cnn(C(C)C)c3O)c(C)c21 [Example 21]
- melting point: 54 to 60 °C

SMILES: Cc1c(C(=O)c2cnn(C(C)C)c2O)ccc2sc(=O)n(CC3OCCO3)c12 [Example 23]
- melting point: 54 to 58 °C

SMILES: Cc1c(C(=O)c2cnn(C(C)C)c2OCc2ccccc2)ccc2sc(=O)n(CC3OCCO3)c12 [Example 24]
- melting point: 133 to 134 °C

SMILES: Cc1c(C(=O)c2cnn(C)c2O)ccc2oc(=O)n(CC(C)C)c12 [Example 26]
- melting point: 150 to 151 °C

SMILES: CCCn1c(=O)oc2ccc(C(=O)c3cnn(C(C)C)c3O)c(C)c21 [Example 27]
- melting point: 104 to 105 °C

SMILES: CCCn1c(=O)sc2ccc(C(=O)c3c(C)nn(C)c3O)c(C)c21 [Example 28]
- melting point: 56 to 61 °C

SMILES: Cc1c(C(=O)c2cnn(C)c2OCc2ccccc2)ccc2sc(=O)n(Cc3ccccc3)c12 [Example 35]
- melting point: 150 to 151 °C

SMILES: CCCCCn1c(=O)sc2ccc(C(=O)c3cnn(C(C)C)c3O)c(C)c21 [Example 39]
- melting point: 105 to 107 °C

SMILES: COc1cccc(Cn2c(=O)sc3ccc(C(=O)c4cnn(C(C)C)c4O)c(C)c32)c1 [Example 44]
- melting point: 71 to 74 °C

SMILES: COc1cccc(Cn2c(=O)sc3ccc(C(=O)c4cnn(C)c4O)c(C)c32)c1 [Example 45]
- melting point: 79 to 89 °C

SMILES: CCCn1c(=O)oc2ccc(C(=O)c3cnn(C)c3O)c(C)c21 [Example I-1a.4]
- herbicidal action against AMARE (AMARE; 125 or 62.5 g/ha (a.s.)): very good herbicidal action (A damage of at least 95% corresponds to very good herbicidal action)
- herbicidal action against BRAPL (BRAPL; 125 or 62.5 g/ha (a.s.)): very good herbicidal action (A damage of at least 95% corresponds to very good herbicidal action)

SMILES: CCCCn1c(=O)oc2ccc(C(=O)c3cnn(C)c3O)c(C)c21 [Example I-1a.6]
- herbicidal action against BIDPI (BIDPI): very good herbicidal action (A damage of at least 95% corresponds to very good herbicidal action)
- herbicidal action against POLPE (POLPE; 125 or 250 g/ha (a.s.)): very good herbicidal action (A damage of at least 95% corresponds to very good herbicidal action)

SMILES: Cc1c(C(=O)c2cnn(C)c2O)ccc2sc(=O)n(C)c12 [Example I-1a.1129, 3,4-dimethyl-5-(5′-hydroxy-1′-methyl-pyrazol-4-yl)carbonyl benzothiazol-2-one]
- herbicidal action against STEME (STEME): very good herbicidal action (A damage of at least 95% corresponds to very good herbicidal action)
- herbicidal action against THLAR (THLAR): very good herbicidal action (A damage of at least 95% corresponds to very good herbicidal action)

SMILES: CCn1c(=O)sc2ccc(C(=O)c3cnn(C)c3O)c(C)c21 [Example I-1a.1131]
- herbicidal action against AMARE (AMARE; 125 or 250 g/ha (a.s.)): very good herbicidal action (A damage of at least 95% corresponds to very good herbicidal action)
- herbicidal action against BRAPL (BRAPL; 125 or 250 g/ha (a.s.)): very good herbicidal action (A damage of at least 95% corresponds to very good herbicidal action)

SMILES: CCn1ncc(C(=O)c2ccc3sc(=O)n(C)c3c2C)c1O [Example I-1b.1129, 3,4-dimethyl-5-(5′-hydroxy-1′-ethylpyrazol-4-yl)carbonylbenzothiazol-2-one]
- herbicidal action against PARPH (PAPRH): very good herbicidal action (A damage of at least 95% corresponds to very good herbicidal action)
- herbicidal action against STEME (STEME): very good herbicidal action (A damage of at least 95% corresponds to very good herbicidal action)
- herbicidal action against THLAR (THLAR): very good herbicidal action (A damage of at least 95% corresponds to very good herbicidal action)

SMILES: CCn1ncc(C(=O)c2ccc3sc(=O)n(CC)c3c2C)c1O [Example I-1b.1131]
- herbicidal action against AMARE (AMARE; 125 or 250 g/ha (a.s.)): very good herbicidal action (A damage of at least 95% corresponds to very good herbicidal action)
- herbicidal action against BRAPL (BRAPL; 125 or 250 g/ha (a.s.)): very good herbicidal action (A damage of at least 95% corresponds to very good herbicidal action)

SMILES: Cc1c(C(=O)c2cnn(C(C)C)c2O)ccc2sc(=O)n(C)c12 [Example I-1c.1129, 3,4-dimethyl-5-(5′-hydroxy-1′-isopropylpyrazol-4-yl)carbonylbenzothiazol-2-one]
- herbicidal action against AMARE (AMARE; 31.3 or 62.5 g/ha (a.s.)): very good herbicidal action (A damage of at least 95% corresponds to very good herbicidal action)
- herbicidal action against POLPE (POLPE; 31.3 or 62.5 g/ha (a.s.)): very good herbicidal action (A damage of at least 95% corresponds to very good herbicidal action)

SMILES: CCn1c(=O)sc2ccc(C(=O)c3cnn(C(C)C)c3O)c(C)c21 [Example I-1c.1131]
- herbicidal action against AMARE (AMARE; 125 or 250 g/ha (a.s.)): very good herbicidal action (A damage of at least 95% corresponds to very good herbicidal action)
- herbicidal action against BRAPL (BRAPL; 125 or 250 g/ha (a.s.)): very good herbicidal action (A damage of at least 95% corresponds to very good herbicidal action)

SMILES: CCn1c(=O)sc2ccc(C(=O)c3cnn(C(C)(C)C)c3O)c(C)c21 [Example I-1d.1131]
- herbicidal action against AMARE (AMARE; 125 or 250 g/ha (a.s.)): very good herbicidal action (A damage of at least 95% corresponds to very good herbicidal action)
- herbicidal action against BRAPL (BRAPL; 125 or 250 g/ha (a.s.)): very good herbicidal action (A damage of at least 95% corresponds to very good herbicidal action)

SMILES: CCn1c(=O)sc2ccc(C(=O)c3cnn(C)c3OCc3ccccc3)c(C)c21 [Example I-1g.1131]
- herbicidal action against AMARE (AMARE; 125 or 250 g/ha (a.s.)): very good-herbicidal action
- herbicidal action against BRAPL (BRAPL; 125 or 250 g/ha (a.s.)): very good-herbicidal action
- herbicidal action against CHEAL (CHEAL): very good-herbicidal action
- herbicidal action against ECHCG (ECHCG): very good-herbicidal action
- herbicidal action against SETFA (SETFA): very good-herbicidal action

SMILES: CCn1ncc(C(=O)c2ccc3sc(=O)n(CC)c3c2C)c1OCc1ccccc1 [Example I-1h.1131]
- herbicidal action against AMARE (AMARE; 125 or 250 g/ha (a.s.)): very good herbicidal action (A damage of at least 95% corresponds to very good herbicidal action)
- herbicidal action against BRAPL (BRAPL; 125 or 250 g/ha (a.s.)): very good herbicidal action (A damage of at least 95% corresponds to very good herbicidal action)

SMILES: CCn1c(=O)sc2ccc(C(=O)c3cnn(C(C)(C)C)c3OCc3ccccc3)c(C)c21 [Example I-1y.1131]
- herbicidal action against BRAPL (BRAPL; 125 or 250 g/ha (a.s.)): very good herbicidal action (A damage of at least 95% corresponds to very good herbicidal action)
- herbicidal action against PHBPU (PHBPU): very good herbicidal action (A damage of at least 95% corresponds to very good herbicidal action)
